Data as given in ChEMBL document CHEMBL1155084 (J Med Chem, 2008).

Key:
CYP1A2 = target: T1, CYP1A2 (Homo sapiens, UniProt P05177); experiment: Inhibition of CYP1A2 at 10 uM; assay type: ADME
T1 sequence (P05177 whole entry): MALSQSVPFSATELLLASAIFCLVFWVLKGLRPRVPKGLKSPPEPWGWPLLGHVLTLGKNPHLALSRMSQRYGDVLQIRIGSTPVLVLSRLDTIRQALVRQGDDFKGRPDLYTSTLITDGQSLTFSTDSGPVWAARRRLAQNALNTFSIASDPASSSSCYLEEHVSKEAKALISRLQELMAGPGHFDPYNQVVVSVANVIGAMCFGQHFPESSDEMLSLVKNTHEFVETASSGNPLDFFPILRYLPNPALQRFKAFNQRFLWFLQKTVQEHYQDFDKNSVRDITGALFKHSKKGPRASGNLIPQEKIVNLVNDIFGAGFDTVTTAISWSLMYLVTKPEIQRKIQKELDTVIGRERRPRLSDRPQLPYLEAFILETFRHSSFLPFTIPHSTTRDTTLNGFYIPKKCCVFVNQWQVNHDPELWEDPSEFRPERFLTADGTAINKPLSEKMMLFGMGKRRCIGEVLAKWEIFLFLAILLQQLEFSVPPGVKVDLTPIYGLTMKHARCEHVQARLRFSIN

CYP2C9 = CYP2C9 (Homo sapiens, UniProt P11712); experiment: Inhibition of CYP2C9 at 10 uM; assay type: ADME
Sequence of CYP2C9 (P11712 whole entry): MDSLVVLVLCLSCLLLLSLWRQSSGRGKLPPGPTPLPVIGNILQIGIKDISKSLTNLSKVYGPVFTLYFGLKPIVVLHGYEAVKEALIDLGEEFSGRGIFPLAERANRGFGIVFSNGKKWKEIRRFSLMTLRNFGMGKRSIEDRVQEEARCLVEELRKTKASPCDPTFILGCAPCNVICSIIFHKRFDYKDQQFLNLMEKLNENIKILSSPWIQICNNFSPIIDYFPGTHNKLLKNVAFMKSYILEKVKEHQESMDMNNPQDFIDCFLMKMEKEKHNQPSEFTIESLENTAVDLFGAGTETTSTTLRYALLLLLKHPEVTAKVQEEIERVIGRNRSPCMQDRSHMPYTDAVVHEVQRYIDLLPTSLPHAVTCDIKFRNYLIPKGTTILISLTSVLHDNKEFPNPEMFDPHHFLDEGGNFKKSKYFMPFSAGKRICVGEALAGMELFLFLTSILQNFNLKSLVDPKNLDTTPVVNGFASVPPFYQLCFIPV

Blood [1] = experiment: Inhibition of IL1-beta release in human whole blood; assay type: functional, tissue-based
[2] = target: Mitogen-activated protein kinase 14 (Homo sapiens, UniProt Q16539); experiment: Inhibition of p38alpha
Sequence of Mitogen-activated protein kinase 14 (Q16539 whole entry): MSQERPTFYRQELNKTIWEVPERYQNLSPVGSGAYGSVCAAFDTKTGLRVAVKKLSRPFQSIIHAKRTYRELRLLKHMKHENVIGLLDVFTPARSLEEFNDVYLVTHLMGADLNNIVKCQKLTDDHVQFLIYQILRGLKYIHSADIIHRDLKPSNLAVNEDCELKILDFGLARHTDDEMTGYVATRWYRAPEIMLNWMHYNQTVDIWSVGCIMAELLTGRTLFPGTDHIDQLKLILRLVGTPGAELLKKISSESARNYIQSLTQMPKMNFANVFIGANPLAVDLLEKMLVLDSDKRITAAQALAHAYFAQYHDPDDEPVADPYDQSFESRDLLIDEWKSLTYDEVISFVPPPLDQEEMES

Blood [3] = experiment: Inhibition of TNFalpha release in human whole blood; assay type: functional, tissue-based
CYP3A4 = CYP3A4 (Homo sapiens, UniProt P08684); experiment: Inhibition of CYP3A4 at 10 uM; assay type: ADME
Sequence of CYP3A4 (P08684 whole entry): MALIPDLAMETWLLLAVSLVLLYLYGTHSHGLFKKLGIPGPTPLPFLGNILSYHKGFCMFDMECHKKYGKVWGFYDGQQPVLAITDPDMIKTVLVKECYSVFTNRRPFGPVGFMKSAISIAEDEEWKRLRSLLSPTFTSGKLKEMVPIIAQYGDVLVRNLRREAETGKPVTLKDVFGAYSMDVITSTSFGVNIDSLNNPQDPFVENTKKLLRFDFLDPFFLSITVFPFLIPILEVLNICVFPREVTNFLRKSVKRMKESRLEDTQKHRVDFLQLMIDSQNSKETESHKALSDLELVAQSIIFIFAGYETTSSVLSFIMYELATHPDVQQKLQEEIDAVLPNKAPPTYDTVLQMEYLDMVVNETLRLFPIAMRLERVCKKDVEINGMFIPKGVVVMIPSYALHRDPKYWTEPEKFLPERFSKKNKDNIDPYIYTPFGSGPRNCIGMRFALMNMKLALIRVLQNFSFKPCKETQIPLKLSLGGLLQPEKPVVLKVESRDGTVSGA

CYP2C19 = CYP2C19 (Homo sapiens, UniProt P33261); experiment: Inhibition of CYP2C19 at 10 uM; assay type: ADME
Sequence of CYP2C19 (P33261 whole entry): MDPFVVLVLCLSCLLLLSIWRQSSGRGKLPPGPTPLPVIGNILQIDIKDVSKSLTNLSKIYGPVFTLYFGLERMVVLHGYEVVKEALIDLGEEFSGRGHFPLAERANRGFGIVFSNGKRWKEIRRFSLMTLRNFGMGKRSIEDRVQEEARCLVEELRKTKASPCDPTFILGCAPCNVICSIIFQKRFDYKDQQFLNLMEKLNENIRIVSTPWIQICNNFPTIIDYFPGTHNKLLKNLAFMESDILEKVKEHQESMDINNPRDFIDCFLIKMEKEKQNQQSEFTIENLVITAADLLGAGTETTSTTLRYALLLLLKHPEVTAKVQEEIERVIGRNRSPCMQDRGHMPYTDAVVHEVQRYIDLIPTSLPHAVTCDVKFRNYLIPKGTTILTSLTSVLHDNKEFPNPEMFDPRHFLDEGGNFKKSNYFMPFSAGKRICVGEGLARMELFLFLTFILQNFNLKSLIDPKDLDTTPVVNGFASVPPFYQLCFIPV

CYP2D6 = CYP2D6 (Homo sapiens, UniProt P10635); experiment: Inhibition of CYP2D6 at 10 uM; assay type: ADME
Sequence of CYP2D6 (P10635 whole entry): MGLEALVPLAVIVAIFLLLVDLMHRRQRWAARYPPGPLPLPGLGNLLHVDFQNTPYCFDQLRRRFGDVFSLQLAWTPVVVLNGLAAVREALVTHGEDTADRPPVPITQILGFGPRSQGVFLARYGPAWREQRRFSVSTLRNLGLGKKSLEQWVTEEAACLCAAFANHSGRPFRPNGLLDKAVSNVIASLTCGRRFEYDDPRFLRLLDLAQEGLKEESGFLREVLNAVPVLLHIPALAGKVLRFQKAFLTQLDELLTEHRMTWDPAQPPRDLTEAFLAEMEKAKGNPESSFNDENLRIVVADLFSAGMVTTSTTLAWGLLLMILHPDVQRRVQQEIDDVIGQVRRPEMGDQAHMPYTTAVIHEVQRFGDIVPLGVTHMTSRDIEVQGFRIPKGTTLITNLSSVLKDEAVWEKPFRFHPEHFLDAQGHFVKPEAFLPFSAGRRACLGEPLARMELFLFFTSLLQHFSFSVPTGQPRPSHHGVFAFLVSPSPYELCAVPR

Compound	inhibition at 10 µM (CYP1A2) [%]	inhibition at 10 µM (CYP2C9) [%]	IC50 (Blood [1]) [µM]	IC50 [2] [µM]	IC50 (Blood [3]) [µM]	inhibition at 10 µM (CYP3A4) [%]	inhibition at 10 µM (CYP2C19) [%]	inhibition at 10 µM (CYP2D6) [%]
C[S+]([O-])c1ccc(-c2nc(-c3ccncc3)c(-c3ccc(F)cc3)[nH]2)cc1 (stereo not drawn) [SB-203580]	38	87						
CSc1nc(-c2ccnc(NC3CCCc4ccccc43)c2)c(-c2ccc(F)cc2)[nH]1 (stereo not drawn)			16.2	0.047	2.81			
CSc1nc(-c2ccc(F)cc2)c(-c2ccnc(NCCc3cc(C)ccc3C)c2)[nH]1			59.3	0.082	51.5			
CSc1nc(-c2ccc(F)cc2)c(-c2ccnc(NCC3CCCCC3)c2)[nH]1	62	73		0.08	5.94	80	80	63
COCCn1c(SC)nc(-c2ccc(F)cc2)c1-c1ccnc(N[C@H]2CC[C@H](O)CC2)c1	23	40		0.003	1.65	80	58	24
CSc1nc(-c2ccc(F)cc2)c(-c2ccnc(NCc3cccnc3)c2)[nH]1	67	77		0.098	9.85	93	81	54
CCC(Nc1cc(-c2nc(SC)[nH]c2-c2ccc(F)cc2)ccn1)c1ccccc1 (stereo not drawn)	55	80		0.068		81	88	73
CSc1nc(-c2ccc(F)cc2)c(-c2ccnc(NCC(C)O)c2)[nH]1 (stereo not drawn)	29	39	1.89	0.021	0.416	33	25	5
CSc1nc(-c2ccc(F)cc2)c(-c2ccnc(NCC(C)c3ccccc3)c2)[nH]1 (stereo not drawn)			10.1	0.017	3.93			
CSc1nc(-c2cccc(C(F)(F)F)c2)c(-c2ccnc(NC(C)CCc3ccccc3)c2)[nH]1 (stereo not drawn)			1.29	0.049	4.64			
CSc1nc(-c2cccc(C(F)(F)F)c2)c(-c2ccnc(NC(C)C(C)C)c2)[nH]1 (stereo not drawn)			1.36	0.034	2.93			
CSc1nc(-c2ccc(F)cc2)c(-c2ccnc(Oc3ccc(C)cc3)c2)[nH]1	94	81	27.4	0.033	18.3	95	86	0
CSc1nc(-c2ccc(F)cc2)c(-c2ccnc(NCc3cccs3)c2)[nH]1	83	82		0.046	4.88	83	78	51
CCC(C)CNc1cc(-c2[nH]c(SC)nc2-c2ccc(F)cc2)ccn1 (stereo not drawn)			2.76	0.023	0.622			
CSc1nc(-c2ccc(F)cc2)c(-c2ccnc(OC(C)CCCC(C)C)c2)[nH]1 (stereo not drawn)				0.641	42.7			
CSc1nc(-c2cccc(C(F)(F)F)c2)c(-c2ccnc(NCc3ccccc3)c2)[nH]1				0.282	38.1			
CSc1nc(-c2ccc(F)cc2)c(-c2ccnc(NC(CO)C(C)C)c2)[nH]1 (stereo not drawn)				0.034	1.06			
CSc1nc(-c2ccc(F)cc2)c(-c2ccnc(NC(C)C(C)(C)C)c2)[nH]1 (stereo not drawn)				0.23	0.435			
CCSc1cc(-c2nc(SC)[nH]c2-c2ccc(F)cc2)ccn1			61.3	0.087	24.1			
CSc1nc(-c2ccc(F)cc2)c(-c2ccnc(N[C@H]3CC[C@H](O)CC3)c2)[nH]1				0.003	0.386			
CSc1nc(-c2ccc(F)cc2)c(-c2ccnc(NCCC(C)C)c2)[nH]1				0.09	2.43			
COCCn1c(SC)nc(-c2ccc(F)cc2)c1-c1ccnc(NC(C)CO)c1 (stereo not drawn)				0.292	17.4			
CSc1nc(-c2ccc(F)cc2)c(-c2ccnc(NCc3ccccn3)c2)[nH]1	53	52		0.07	4.32	53	47	9
CSc1nc(-c2ccc(F)cc2)c(-c2ccnc(NCCO)c2)[nH]1				0.045	2.04			

Compound	inhibition at 10 µM (CYP1A2) [%]	inhibition at 10 µM (CYP2C9) [%]	IC50 (Blood [1]) [µM]	IC50 [2] [µM]	IC50 (Blood [3]) [µM]	inhibition at 10 µM (CYP3A4) [%]	inhibition at 10 µM (CYP2C19) [%]	inhibition at 10 µM (CYP2D6) [%]
COCCn1c(SC)nc(-c2ccc(F)cc2)c1-c1ccnc(N[C@@H](C)c2ccccc2)c1	5	85		0.04	0.58	81	95	25
CSc1nc(-c2ccc(F)cc2)c(-c2ccnc(NCc3cc4ccccc4s3)c2)[nH]1				0.314	55.5			
CSc1nc(-c2ccc(F)cc2)c(-c2ccnc(NCc3ccc(C(C)(C)C)cc3)c2)[nH]1				1.34	52.6			
CSc1nc(-c2ccc(F)cc2)c(-c2ccnc(NC(Cc3ccccc3)c3ccccc3)c2)[nH]1 (stereo not drawn)				0.348	43.5			
CSc1nc(-c2ccc(F)cc2)c(-c2ccncc2)n1C			0.08		5.1			
COCCn1c(SC)nc(-c2ccc(F)cc2)c1-c1ccnc(N[C@H](C)C2CCCCC2)c1				0.359	28			
CSc1nc(-c2ccc(F)cc2)c(-c2ccnc(OCc3ccccc3)c2)[nH]1				0.436	44.7			
CSc1nc(-c2cccc(C(F)(F)F)c2)c(-c2ccnc(NC3CCCc4ccccc43)c2)[nH]1 (stereo not drawn)			10.3	0.248	21.2			
CSc1nc(-c2cccc(C(F)(F)F)c2)c(-c2ccnc(F)c2)[nH]1				1.09	44.2			
CSc1nc(-c2ccc(F)cc2)c(-c2ccnc(N[C@@H](C)c3ccccc3)c2)n1C	60	66		0.07	1.71	87	76	27
COCCn1c(SC)nc(-c2ccc(F)cc2)c1-c1ccnc(NC[C@H]2CCCC[C@@H]2O)c1				0.235	11.5			
CSc1nc(-c2ccc(F)cc2)c(-c2ccnc(NCCC(C)(C)C)c2)[nH]1				0.126	4.54			
COCCn1c(SC)nc(-c2ccc(F)cc2)c1-c1ccnc(N[C@H](C)c2ccccc2)c1	25	71		0.61	9.86	87	83	64
CSc1nc(-c2ccc(F)cc2)c(-c2ccnc(NC(C)C(C)C)c2)[nH]1 (stereo not drawn)	45	75	0.63	0.011	0.167	59	76	53
CSc1nc(-c2ccc(F)cc2)c(-c2ccnc(NC(C)CO)c2)[nH]1 (stereo not drawn)				0.006	0.439			
CSc1nc(-c2ccc(F)cc2)c(-c2ccnc(NCc3cccc4ccccc34)c2)[nH]1				0.171	28			
CSc1nc(-c2ccc(F)cc2)c(-c2ccnc(NC(Cc3ccccc3)Cc3ccccc3)c2)[nH]1				2.15	43.6			
CSc1nc(-c2ccc(F)cc2)c(-c2ccnc(N[C@H](C)c3ccccc3)c2)n1C	52	78		0.96	> 20	85	87	53
CSc1nc(-c2ccc(F)cc2)c(-c2ccnc(NCc3ccco3)c2)[nH]1	76	71		0.06	5.52	81	63	66
CSc1nc(-c2ccnc(NC3CCCCC3)c2)c(-c2ccc(F)cc2)[nH]1				0.02	0.362			
CSc1nc(-c2cccc(C(F)(F)F)c2)c(-c2ccnc(NCc3ccco3)c2)[nH]1				0.191	14.8			
CCSc1nc(-c2cccc(C(F)(F)F)c2)c(-c2ccnc(F)c2)[nH]1				0.657	71.5			
CSc1nc(-c2ccc(F)cc2)c(-c2ccnc3ccccc23)[nH]1			35	0.411	16.8			
CSc1nc(-c2ccc(F)cc2)c(-c2ccnc(NC3CCCCC3C)c2)[nH]1 (mixture of isomers)			0.136	0.013	0.458			
